In US10406207B2, “Peptide conjugates of GLP-1 receptor agonists and gastrin and their use” (priority 2010, dated 2019):
Where two headings read alike, the source gives them in different places.

Experiments:
Assay type in all cases: cell-based
[1] = biological target: T1, mouse CCK-B R (Mus musculus, UniProt P56481); assay: Mouse CCK-B receptor efficacy assay (AlphaScreen SureFire p-ERK); details: Table 1; HEK293 cells expressing mouse CCK-B R, p-ERK; read-out: mCCK-B R EC50
T1 construct: expressed in transfected cells
T1 sequence (P56481 1-453): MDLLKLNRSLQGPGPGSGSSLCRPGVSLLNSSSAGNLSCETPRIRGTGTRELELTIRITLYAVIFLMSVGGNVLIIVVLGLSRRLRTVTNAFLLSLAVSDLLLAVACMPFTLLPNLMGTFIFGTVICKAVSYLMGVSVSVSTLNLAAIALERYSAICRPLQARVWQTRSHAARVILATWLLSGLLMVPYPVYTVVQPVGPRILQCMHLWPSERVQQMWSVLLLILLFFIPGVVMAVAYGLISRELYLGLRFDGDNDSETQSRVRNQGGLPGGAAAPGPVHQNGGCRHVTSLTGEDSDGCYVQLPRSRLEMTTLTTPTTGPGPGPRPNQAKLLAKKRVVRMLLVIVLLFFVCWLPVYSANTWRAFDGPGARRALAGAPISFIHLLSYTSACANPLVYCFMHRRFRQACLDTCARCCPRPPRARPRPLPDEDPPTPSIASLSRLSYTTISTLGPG
Excerpt: CCK-B Receptor (CCK-B R) Efficacy Assay:
To test binding and activation of CCK-B R we produced stable cell lines expressing one of the human or mouse CCK receptors in a manner similar to that for production of the hGLP-1 R cell lines were generated (vide supra). In brief, we used HEK293 cells for transfection of the cDNA for human or mouse CCK-A R or CCK-B R [hCCK-A R (gene identity: L19315), hCCK-B R (NM_176875), mCCK-A R (NM_009827) and mCCK-B R (NM_007627)] all cloned into the transfection plasmid pIRESneo2dNGFR. The cells were grown according to standard protocol in growth medium and transfected with the plasmids using Lipofectamin (Invitrogen). The cells stably expressing CCK receptors were selected using G418 in the growth medium (only cells that have taken up and incorporated the cDNA expression plasmid survive) and propagated. Stocks of cells were frozen for later use.
In vitro effects of peptide conjugates of the invention were estimated by measuring p-ERK (using the AlphaScreen™ SureFire p-ERK assay) in HEK293 cells stably expressing the human and mouse CCK-B R (high-affinity Gastrin receptor), respectively. The Gastrin receptor efficacy assays (AlphaScreen™ SureFire p-ERK assay) were performed as follows:
The CCK-B R expressing cells in question were seeded at 20,000 cells/well in 100 μl growth medium [DMEM, 10% FCS, Penicillin (100 IU/ml), Streptomycin (100 μg/ml)] in a 96-well plate coated with poly-D-lysine. The cells were incubated in an incubator (37° C., 5% […]) for two days.
The growth medium was changed to 80 μl of serum-free medium [DMEM, Penicillin (100 IU/ml), Streptomycin (100 μg/ml)] per well, and incubation of the cells was continued for 19 hours in the incubator (37° C., 5% CO2).
• 1. After 19 hours, 20 μl of serum-free medium containing one of 5 different concentrations of peptide conjugate was added (performed in triplicate for each concentration), and the cells were incubated for 5 min. at room temperature. • 2. The stimulation medium was discarded by quickly turning the plate upside down, and 60 μl 1× lysis buffer (from the SureFire assay kit) was added per well. • 3. The plate was shaken on a plate-shaker for 5 min and then placed on ice. • 4. SureFire P-ERK assay: 4 μl of each supernatant was transferred to a 384 well proxiplate (Perkin Elmer). • 5. 4 μl of each of the two control lysates (unstimulated and stimulated) were added to the proxiplate in duplicate. • 6. […] 7 μl of the latter reaction buffer+activation buffer+beads per well were added in the proxiplate, the mix being resuspended carefully before addition to the wells. • 7. The plate was incubated for 2 hours in a dark box in a 22° C. incubator. • 8. The plate was analyzed on an Envision™ light-emission plate reader (Perkin-Elmer) using the appropriate reading program (Perkin-Elmer).

[2] = biological target: T2, human CCK-B R (Homo sapiens, UniProt P32239); assay: Human CCK-B receptor efficacy assay (AlphaScreen SureFire p-ERK); details: Table 1; HEK293 cells expressing human CCK-B R, p-ERK; read-out: hCCK-B R EC50
T2 construct: expressed in transfected cells
T2 sequence (P32239 1-447): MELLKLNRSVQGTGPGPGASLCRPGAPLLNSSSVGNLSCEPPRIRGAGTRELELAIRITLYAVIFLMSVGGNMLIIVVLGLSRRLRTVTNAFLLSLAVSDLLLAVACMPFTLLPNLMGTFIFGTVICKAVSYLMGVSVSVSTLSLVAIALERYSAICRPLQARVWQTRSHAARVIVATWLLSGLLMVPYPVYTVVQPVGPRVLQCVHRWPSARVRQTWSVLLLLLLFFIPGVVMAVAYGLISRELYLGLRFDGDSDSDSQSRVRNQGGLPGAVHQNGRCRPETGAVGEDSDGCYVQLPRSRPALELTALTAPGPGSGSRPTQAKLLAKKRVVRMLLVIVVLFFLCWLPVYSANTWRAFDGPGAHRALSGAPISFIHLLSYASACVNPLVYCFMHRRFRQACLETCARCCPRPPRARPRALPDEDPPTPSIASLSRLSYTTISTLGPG

[3] = biological target: T3, human GLP-1 R (Homo sapiens, UniProt P43220); assay: Human GLP-1 receptor efficacy assay (cAMP induction, FlashPlate); details: read-out: hGLP-1 R EC50
T3 construct: expressed in transfected cells
Method: On the day of analysis, growth medium was removed and the cells were washed once with 200 μl Tyrode buffer [Tyrode's Salts (9.6 g/l), 10 mM HEPES, pH 7.4]. […] The reaction was stopped by addition of 25 μl 0.5 M HCl and incubated on ice for 60 min.

[4] = Table 1, HEK293 cells expressing human GLP-1 R, cAMP

T3 sequence (P43220 24-463): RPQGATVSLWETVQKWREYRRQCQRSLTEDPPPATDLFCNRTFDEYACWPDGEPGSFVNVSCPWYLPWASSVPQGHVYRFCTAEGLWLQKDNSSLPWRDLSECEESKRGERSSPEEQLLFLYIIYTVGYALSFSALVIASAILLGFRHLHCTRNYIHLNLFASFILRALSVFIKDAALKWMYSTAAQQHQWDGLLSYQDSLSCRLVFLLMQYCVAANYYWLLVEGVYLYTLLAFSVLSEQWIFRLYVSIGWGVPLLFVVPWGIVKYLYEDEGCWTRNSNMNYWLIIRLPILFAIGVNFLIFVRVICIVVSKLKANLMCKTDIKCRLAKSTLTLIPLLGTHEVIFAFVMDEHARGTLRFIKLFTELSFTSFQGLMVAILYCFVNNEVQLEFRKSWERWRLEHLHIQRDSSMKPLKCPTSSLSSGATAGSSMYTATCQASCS

Row | EC50 [1] [nM] | EC50 [2] [nM] | EC50 [3, 4] [nM] | EC50 ([3]; Table 3) [nM] | Compound
1 | 82.5 | 51.9 |  |  | CC[C@H](C)[C@H](NC(=O)[C@H](Cc1ccccc1)NC(=O)[C@H](CCC(=O)O)NC(=O)[C@H](CCCCN)NC(=O)[C@H](C)NC(=O)[C@H](C)NC(=O)[C@H](CCC(N)=O)NC(=O)CNC(=O)[C@H](CCC(=O)O)NC(=O)[C@H](CC(C)C)NC(=O)[C@H](Cc1ccc(O)cc1)NC(=O)[C@H](CO)NC(=O)[C@H](CO)NC(=O)[C@@H](NC(=O)[C@H](CC(=O)O)NC(=O)[C@H](CO)NC(=O)[C@@H](NC(=O)[C@H](Cc1ccccc1)NC(=O)[C@@H](NC(=O)CNC(=O)[C@H](CCC(=O)O)NC(=O)[C@H](C)NC(=O)[C@@H](N)Cc1c[nH]cn1)[C@@H](C)O)[C@@H](C)O)C(C)C)C(=O)N[C@@H](C)C(=O)N[C@@H](Cc1c[nH]c2ccccc12)C(=O)N[C@@H](CC(C)C)C(=O)N[C@H](C(=O)N[C@@H](CCCCN)C(=O)NCC(=O)N[C@@H](CCCNC(=N)N)C(=O)NCCCCCCCC(=O)N[C@@H](CO)C(=O)N[C@@H](CCCCN)C(=O)N[C@@H](CCCCN)C(=O)N[C@@H](CCC(N)=O)C(=O)NCC(=O)N1CCC[C@H]1C(=O)N[C@@H](Cc1c[nH]c2ccccc12)C(=O)N[C@@H](CC(C)C)C(=O)N[C@@H](CCC(=O)O)C(=O)N[C@@H](CCC(=O)O)C(=O)N[C@@H](CCC(=O)O)C(=O)N[C@@H](CCC(=O)O)C(=O)N[C@@H](CCC(=O)O)C(=O)N[C@@H](C)C(=O)N[C@@H](Cc1ccc(O)cc1)C(=O)NCC(=O)N[C@@H](Cc1c[nH]c2ccccc12)C(=O)N[C@@H](CC(C)C)C(=O)N[C@@H](CC(=O)O)C(=O)N[C@@H](Cc1ccccc1)C(N)=O)C(C)C [Compound 43, GLP-1(7-36)-8Aoc-SKK-[Gln1,Leu15]Gastrin17]
2 | 86.9 | 25.7 |  |  | CC[C@H](C)[C@H](NC(=O)[C@H](Cc1ccccc1)NC(=O)[C@H](CCC(=O)O)NC(=O)[C@H](CCCCN)NC(=O)[C@H](C)NC(=O)[C@H](C)NC(=O)[C@H](CCC(N)=O)NC(=O)CNC(=O)[C@H](CCC(=O)O)NC(=O)[C@H](CC(C)C)NC(=O)[C@H](Cc1ccc(O)cc1)NC(=O)[C@H](CO)NC(=O)[C@H](CO)NC(=O)[C@@H](NC(=O)[C@H](CC(=O)O)NC(=O)[C@H](CO)NC(=O)[C@@H](NC(=O)[C@H](Cc1ccccc1)NC(=O)[C@@H](NC(=O)CNC(=O)[C@H](CCC(=O)O)NC(=O)[C@H](C)NC(=O)[C@@H](N)Cc1c[nH]cn1)[C@@H](C)O)[C@@H](C)O)C(C)C)C(=O)N[C@@H](C)C(=O)N[C@@H](Cc1c[nH]c2ccccc12)C(=O)N[C@@H](CC(C)C)C(=O)N[C@H](C(=O)N[C@@H](CCCCN)C(=O)NCC(=O)N[C@@H](CCCNC(=N)N)C(=O)NCCc1cccc2c1oc1c(CCC(=O)N[C@@H](CO)C(=O)N[C@@H](CCCCN)C(=O)N[C@@H](CCCCN)C(=O)N[C@@H](CCC(N)=O)C(=O)NCC(=O)N3CCC[C@H]3C(=O)N[C@@H](Cc3c[nH]c4ccccc34)C(=O)N[C@@H](CC(C)C)C(=O)N[C@@H](CCC(=O)O)C(=O)N[C@@H](CCC(=O)O)C(=O)N[C@@H](CCC(=O)O)C(=O)N[C@@H](CCC(=O)O)C(=O)N[C@@H](CCC(=O)O)C(=O)N[C@@H](C)C(=O)N[C@@H](Cc3ccc(O)cc3)C(=O)NCC(=O)N[C@@H](Cc3c[nH]c4ccccc34)C(=O)N[C@@H](CC(C)C)C(=O)N[C@@H](CC(=O)O)C(=O)N[C@@H](Cc3ccccc3)C(N)=O)cccc12)C(C)C [Compound 44, GLP-1(7-36)-DBF-SKK-[Gln1,Leu15]Gastrin17]
3 | 71.4 | 12.8 |  |  | CC[C@H](C)[C@H](NC(=O)[C@H](Cc1ccccc1)NC(=O)[C@H](CCC(=O)O)NC(=O)[C@H](CCCCN)NC(=O)[C@H](C)NC(=O)[C@H](C)NC(=O)[C@H](CCC(N)=O)NC(=O)CNC(=O)[C@H](CCC(=O)O)NC(=O)[C@H](CC(C)C)NC(=O)[C@H](Cc1ccc(O)cc1)NC(=O)[C@H](CO)NC(=O)[C@H](CO)NC(=O)[C@@H](NC(=O)[C@H](CC(=O)O)NC(=O)[C@H](CO)NC(=O)[C@@H](NC(=O)[C@H](Cc1ccccc1)NC(=O)[C@@H](NC(=O)CNC(=O)[C@H](CCC(=O)O)NC(=O)[C@H](C)NC(=O)[C@@H](N)Cc1c[nH]cn1)[C@@H](C)O)[C@@H](C)O)C(C)C)C(=O)N[C@@H](C)C(=O)N[C@@H](Cc1c[nH]c2ccccc12)C(=O)N[C@@H](CC(C)C)C(=O)N[C@H](C(=O)N[C@@H](CCCCN)C(=O)NCC(=O)N[C@@H](CCCNC(=N)N)C(=O)NCCCCCCCC(=O)NCCCCCCCC(=O)N[C@@H](CCC(N)=O)C(=O)NCC(=O)N1CCC[C@H]1C(=O)N[C@@H](Cc1c[nH]c2ccccc12)C(=O)N[C@@H](CC(C)C)C(=O)N[C@@H](CCC(=O)O)C(=O)N[C@@H](CCC(=O)O)C(=O)N[C@@H](CCC(=O)O)C(=O)N[C@@H](CCC(=O)O)C(=O)N[C@@H](CCC(=O)O)C(=O)N[C@@H](C)C(=O)N[C@@H](Cc1ccc(O)cc1)C(=O)NCC(=O)N[C@@H](Cc1c[nH]c2ccccc12)C(=O)N[C@@H](CC(C)C)C(=O)N[C@@H](CC(=O)O)C(=O)N[C@@H](Cc1ccccc1)C(N)=O)C(C)C [Compound 45, GLP-1(7-36)-8Aoc-8Aoc-[Gln1,Leu15]Gastrin17]
4 | 54.1 | 18.8 | 0.114 | 0.034 | H-HAEGTFTSDVSSYLEGQAAKEFIAWLVKGRAAAQGPWLEEEEEAYGWLDF-NH2 [Compound 39, GLP-1(7-36)-AAA-[Gln1,Leu15]Gastrin17]
5 | 114 | 77.3 | 0.0842 | 0.03 | H-HAEGTFTSDVSSYLEGQAAKEFIAWLVKGRKQGPWLEEEEEAYGWLDF-NH2 [Compound 38, GLP-1(7-36)-K-[Gln1,Leu15]Gastrin17]
6 | 73.1 | 25.9 | 0.145 | 0.03 | H-HAEGTFTSDVSSYLEGQAAKEFIAWLVKGRQGPWLEEEEEAYGWLDF-NH2 [Compound 37, GLP-1(7-36)-[Gln1,Leu15]Gastrin17]
7 | 58.6 | 15.6 | 0.116 | 0.031 | H-HAEGTFTSDVSSYLEGQAAKEFIAWLVKGRSKKQGPWLEEEEEAYGWLDF-NH2 [Compound 40, GLP-1(7-36)-SKK-[Gln1,Leu15]Gastrin17]
